According to paper PMC10507807, “De novo design of a stapled peptide targeting SARS-CoV-2 spike protein receptor-binding domain” (RSC Medicinal Chemistry, 2023):
Starred links: 1 amine or outer side, 2 acyl side, 3 side chain; linkers in the order of their positions; H or OH if unused. Positions of bridges follow the written chain, without caps; N, C: chain ends. Non-standard residues stand in square brackets, D forms with d. Residues, ends and D or L forms follow the SMILES beside them. X1 = C[C@@](CC=[*:3])(N[*:1])C(=O)[*:2]

Tests used:
[1] = test system: SARS-CoV-2 spike protein RBD; type: binding
Vero E6 cells = details: MTT, 0.05–50 μM pep39, 48 h

Compound: CSCC[C@@H]1NC(=O)[C@H](CC(N)=O)NC(=O)[C@@H]2CC(=O)NCCCC[C@H](NC(=O)[C@H](Cc3c[nH]c4ccccc34)NC(=O)[C@@H](NC(=O)[C@H](CCCCN)NC(=O)[C@H](Cc3ccc(O)cc3)NC(=O)[C@H](CC(C)C)NC(=O)[C@H](Cc3c[nH]c4ccccc34)NC(=O)[C@H](CCC(=O)O)NC(=O)[C@@H](NC(=O)CNC(C)=O)[C@@H](C)O)C(C)C)C(=O)N[C@@H](C)C(=O)N[C@@H](Cc3ccccc3)C(=O)N[C@@](C)(C/C=C/C[C@@](C)(C(=O)O)NC1=O)C(=O)N2 [pep39] (Ac-GTEWLYKVWKAF[X1]DNM[X1]-OH; lactam 10-14; staple (E) 13-17)
- confirmation of binding to spike protein RBD [1]: able to confirm the binding of pep39 on the surface of the spike protein RBD
- maximum micro-cantilever deflection ([1]; pH 7.4): 33.27 nm
- minimum micro-cantilever deflection ([1]; pH 7.4): 8.46 nm
- concentration at which significant inhibition of cell growth was observed (Vero E6 cells; P < 0.05 vs PBS): ≥ 50 µM
- concentration above which cell growth is dose dependently inhibited (Vero E6 cells; vs PBS): higher than 0.5 μM
